# Tested on: AKT phosphorylation in bovine chondrocytes
# Test: Stimulation of AKT phosphorylation in primary bovine chondrocytes (pAKT ELISA)
# Type: cell-based
# Conditions: 10 min stimulation, doses in M (Table 4), 6x-Histidine-tagged fusion proteins
# Protocol: Fusion proteins comprising IGF-1 and a cartilage matrix binding domain were prepared as described above. Six fusion proteins were prepared: GF-Fus1 (6x-Histidine-tagged), GF-Fus2(6x-Histidine-tagged), GF-Fus3 (6x-Histidine-tagged), GF-Fus4 (6x-Histidine-tagged), GF-Fus5 (6x-Histidine-tagged), and GF-Fus6 (6x-Histidine-tagged). In order to ensure that the growth factor portion of the fusion protein was active in the fusion proteins, each construct was tested for its ability to stimulate AKT phosphorylation. Wild-type IGF-1 (wtIGF) was included as a control. Bovine chondrocytes were stimulated with a range of doses of each fusion protein, and pAKT levels were measured by ELISA.
# Bovine chondrocytes are isolated from the femoral chondyles of 2-4 week old bovine calves. Knee joints are mounted by removing all tissue surrounding the femur, removing the femoral head with a bone saw or hack saw, and clamping in a tissue vice. Joints are aseptically opened, removing the patella, tibia and fibula. Using a scalpel, cartilage is sliced off the femoral chondyles and placed in sterile PBS (pH=7.4) containing penicillin-streptomycin (1×, Gibco 15140-122). PBS is subsequently removed and pronase solution (50 mL per 5 g of tissue), consisting of high glucose DMEM (Life Technologies Cat#11965-092), fetal bovine serum (10% v/v, Life Technologies Cat#16140071), HEPES (100 mM, Gibco 15630-080), non-essential amino acids (1×, Sigma M7145), penicillin-streptomycin (1×, Gibco 15140-122), proline (400 μM, Sigma P5607-256), Protease Type XIV (2 mg/mL, Sigma Cat# P5147), is added for 1 hour with stirring. After rinsing twice with sterile PBS (pH=7.4), collagenase solution (50 mL per 5 g of tissue), consisting of high glucose DMEM (Life Technologies Cat#11965-092), fetal bovine serum (10% v/v, Life Technologies Cat#16140071), HEPES (100 mM, Gibco 15630-080), NEAA(1×, Sigma M7145), Penicillin-Streptomycin (1×, Gibco 15140-122), 0.25 mg/mL Collagenase P (Roche Cat#11 249 002 001), is added for 18 hours with stirring. Cell are strained, washed, and resuspended in chondrocyte culture medium (low glucose DMEM (1× Gibco 11885-084), Penicillin-Streptomycin (1×, Gibco 15140-122), non-essential amino acids (1×, Sigma M7145), and HEPES (100 mM, Gibco 15630-080)) with fetal bovine serum (10% v/v, Life Technologies Cat#16140071).
# For ligand stimulation, chondrocytes were seeded at 200,000 cells/well into 96-well tissue culture plates with 100 μL of chondrocyte culture medium with fetal bovine serum (10% v/v, Life Technologies Cat#16140071). […]
row,Substance,logEC50 Mean
1,GF-Fus3: C-terminal fusion IGF-1(LR3)-PRELP heparin binding domain,−9.175
2,"wtIGF: Wild-type IGF-1 (R&D systems 291-G1), control [reference compound]",−9.071
3,"GF-Fus1: IGF-1 variant polypeptide Long [R^3]-IGF-1, no fused binding domain; used 6x-Histidine-tagged as control [reference compound]",−9.227

# — patent US20170327556A1, “CARTILAGE-BINDING FUSION PROTEINS” (Merrimack Pharmaceuticals, Inc., priority 2013, published 2017)
